Values after ≈ are worked out from the molar mass of the structure shown. Like-named read-outs stand apart in the source and are kept apart here.
What was measured:
[1] = system: Zika virus Malaysia P 6-740; assay: CPE reduction assay (neutral red uptake); type: cell-based; details: Zika virus
Protocol: (§1) The compounds were administered at a range of concentrations up to 100 μg/ml. Compounds were prepared in MEM just prior to testing. Inhibition of virus replication was determined by microscopic examination of the infected cells for cytopathic effect, increase of neutral red (NR) dye uptake (colorimetric determination), and virus yield reduction. Uninfected cells treated with a compound were assayed as above for cytotoxicity control. The EC50, EC90 and SI (selectivity index) values were determined in Vero76, Huh7 and RD cells as analyzed by the neutral red uptake dye assay and virus yield reduction assays. The results are presented from 3 or more independent experiments (standard deviations not shown. Three Zika virus strains were used in this in vitro study, Malaysia strain P 6-740, Uganda strain MR-766 and Puerto Rico strain PRVABC-59. Cells were maintained under standard conditions.

[2] = system: Zika virus Uganda MR 766; assay: CPE reduction assay (neutral red uptake); type: cell-based; details: Zika virus
Protocol: as §1

[3] = system: Zika virus Puerto Rico PRVABC59; assay: CPE reduction assay (neutral red uptake); type: cell-based; details: Zika virus
Protocol: as §1

[4] = system: Zika virus Malaysia P 6-740; assay: Virus yield reduction (VYR) assay; type: cell-based; details: Zika virus
Protocol: as §1

[5] = system: Zika virus Uganda MR 766; assay: Virus yield reduction (VYR) assay; type: cell-based; details: Zika virus
Protocol: as §1

[6] = system: Zika virus Puerto Rico PRVABC59; assay: Virus yield reduction (VYR) assay; type: cell-based; details: Zika virus
Protocol: as §1

[7] = system: Zika virus; assay: Virus yield reduction curves (FIGS. 1E-1G), strain not stated; type: cell-based
Protocol: as §1

[8] = system: Zika virus (Malaysia, strain P 6-740); assay: Murine Zika virus model, treatment begun 4 h before infection (Example 3); details: for percentage weight change vs placebo: FIG. 6; for relative virus levels vs placebo: FIG. 7; for survival vs placebo: none surviving past day 20
Protocol: The agents used in this experiment were compound A (the compound of formula I, where A is NH2 and B is H as the HCL salt) and ribavirin. Compound A was administered IM at 150 mg/kg/day and 300 mg/kg/day, each in a volume of 0.05 ml saline and ribavirin was administered IP at 75 mg/kg/day and 50 mg/kg/day, each in a volume of 0.1 ml saline. IM or IP administration of the daily dose was accomplished in two IM/IP injections of one-half the daily dose each. Mice were administered the first dose of Compound A and ribavirin 4 hours prior to infection with Zika virus and continued the treatment for 8 days post-infection.
In this experiment, Zika virus (Malaysia, strain P 6-740) was administered at a challenge dose of 100 CCID50 (10^3 pfu) per mouse via subcutaneous injection in a 0.1 ml volume.
Mice were monitored for survival 28 days post-virus challenge. Weight change for individual mice were taken on day 0 and every other day through the end of the experiments. Mice were observed daily for signs of disease including conjunctivitis, hunching, and limb weakness or paralysis.
For Zika virus infection and antiviral treatment studies, mice were randomly assigned to groups of 10 animals each. A 10^-3 dilution (10^4.0 pfu/mL) of the virus was prepared in MEM. Mice were challenged s.c. with 0.1 mL of the diluted virus (˜10^3.0 pfu/animal). All compound dosages were based on an average mouse weight of 22 g. Compounds were prepared in sterile saline less than 18 hours prior to initial administration in mice and stored at 4° C. for the duration of the study. Compound A was administered i.m., twice daily (bid) at 300 or 150 mg/kg/d. Ribavirin was given i.p., bid at 75 or 50 mg/kg/d. Treatments began 4 hours prior to virus challenge and continued for 8 days. The identity of the treatment groups was blinded to the technician administering treatments. Mortality was observed twice daily for 28 days, and the weight of each mouse was recorded on day 0 and then every other day from 1-19 days post-virus infection (dpi). Mice were humanely euthanized if they could no longer right themselves or were unresponsive to stimuli.
Fifty to 100 mg of freshly isolated tissue was ground with a pestle in 1 mL TRI Reagent (Sigma-Aldrich, St. Louis, MO) and total RNA was extracted. For the extraction of viral RNA from liquid samples, QlAamp Viral RNA Mini Spin kit was used according to the manufactures instructions (Qiagen, Valencia, CA). Extracted RNA was eluted with nuclease-free water and was amplified by a quantitative real-time RT-PCR using the Logix Smart Zika Test developed by Co-Diagnostics, Inc. (Bountiful, UT). Five μL of the master mix containing a set of primers and Rapid Probe, labeled with a FAM fluorophore and DABCYL quencher, was mixed with 2-5 μL of RNA and an appropriate volume of water for a final reaction volume of 10 μl. RNA was first reverse transcribed for 10 minutes at 55° C., followed by strand separation by heating to 95° C. for 20 seconds. The PCR reaction consisted of 40 cycles at 95° C. for 1 second and 55° C. for 20 seconds. A standard curve was generated with a synthetic RNA spanning the region of amplification and it was used to calculate the number of genome equivalents of the unknown samples.

[9] = Phase 1 study of intramuscular injection in healthy human subjects (Example 8); type: in vivo; details: Compound A 4 mg/kg IM with lidocaine
Protocol: A phase 1 double-blind, placebo-controlled, dose-ranging study was conducted to evaluate the safety, tolerability, and pharmacokinetics of Compound A administered by intramuscular injection (IM) in healthy human subjects. The study was conducted in two parts. In part 1, subjects received a single dose of Compound A at doses from 0.3 mg/kg to 10 mg/kg via IM administration. Additionally, the effect of lidocaine administration (co-administered with Compound A at a dose of 4 mg/kg) on alleviation of pain associated with injection was also evaluated. In part 2, subjects received Compound A for 7 days (q.d.) at doses of 2.5 mg/kg/day, 5 mg/kg/day or 10 mg/kg/day via IM administration. 50 subjects received single doses of Compound A in part 1 (12 subjects received placebo) and 23 subjects received multiple doses of Compound A in part 2 (6 subjects received placebo). All planned cohorts were completed.
Eligible subjects were adults of either sex ages 18 to 50. […]
The plasma concentration time profile of Compound A was determined for each subject in part 2 (results expressed as ng/ml Compound A). Blood samples were taken on Day 1 prior to administration of the first dose and at 1, 2, 3, 4, 6, 8, 10, 12, 16 and 24 hours after administration of the first dose of Compound A and on Day 7 prior to administration of the last dose of Compound A and at 1, 2, 3, 4, 6, 8, 10, 12, 16, 24, 36, 48, 72 and 96 hours after administration of the last dose of Compound A. Plasma samples were obtained from the blood samples and the concentration of Compound A determined.

Q: Which results are given for `NC(=O)c1ncn([C@@H]2O[C@H](CO)[C@@H](O)[C@H]2O)n1` [Ribavirin, reference compound]?
A: EC50 ([1]; Huh-7 cells): 7.2 ± 2.8 µg/mL (≈ 29.5 µM); EC50 ([1]; Vero 76, Vero76 cells): 143 ± 85 µg/mL (≈ 586 µM); EC50 ([2]; Huh-7 cells): 8.9 ± 7.9 µg/mL (≈ 36.4 µM); EC50 ([2]; RD cells): 9.3 ± 5.2 µg/mL (≈ 38.1 µM); EC50 ([2]; Vero 76, Vero76 cells): 85 ± 77.9 µg/mL (≈ 348 µM); EC50 ([3]; Vero 76, read-out: CPE red. assay EC50): 23 ± 16.8 µg/mL (≈ 94.2 µM); EC50 ([3]; Puerto Rico PRVABC59, Huh-7 cells, read-out: CPE red. assay EC50): 3.8 ± 1.6 µg/mL (≈ 15.6 µM); EC50 ([3]; Puerto Rico PRVABC59, RD cells, read-out: CPE red. assay EC50): 10 ± 6 µg/mL (≈ 40.9 µM); EC90 ([4]; Huh-7 cells): 13.1 ± 0.5 µg/mL (≈ 53.6 µM); EC90 ([4]; Vero 76, Vero76 cells): 195 ± 63.6 µg/mL (≈ 799 µM); EC90 ([5]; Huh-7 cells): 9.52 ± 2.1 µg/mL (≈ 39 µM); EC90 ([5]; RD cells): 13.2 ± 1.7 µg/mL (≈ 54.1 µM); EC90 ([5]; Vero 76, Vero76 cells): 198 ± 172 µg/mL (≈ 811 µM); EC90 ([6]; Vero 76, read-out: VYR assay EC90): ≥ 281 µg/mL; EC90 ([6]; Puerto Rico PRVABC59, Huh-7 cells, read-out: VYR assay EC90): 10.4 ± 0.8 µg/mL (≈ 42.6 µM); EC90 ([6]; Puerto Rico PRVABC59, RD cells, read-out: VYR assay EC90): 46.3 ± 8.6 µg/mL (≈ 190 µM); antiviral activity in virus yield reduction ([7]; Huh-7 cells, FIG. 1F): confirmed the antiviral activity; antiviral activity in virus yield reduction ([7]; RD cells, FIG. 1G): confirmed the antiviral activity; activity in VYR studies ([7]; Vero76 cells, FIG. 1E): not active; percentage weight change vs placebo ([8]; 50 mg/kg/day IP (group 7)): no significant improvement; relative virus levels vs placebo ([8]; 50 mg/kg/day IP (group 7)): failed to decrease relative virus levels; survival vs placebo ([8]; 50 mg/kg/day IP bid x 8 days, begun -4 h (group 7)): did not increase the survival; percentage weight change vs placebo ([8]; 75 mg/kg/day IP (group 5)): no significant improvement; relative virus levels vs placebo ([8]; 75 mg/kg/day IP (group 5)): failed to decrease relative virus levels; survival vs placebo ([8]; 75 mg/kg/day IP bid x 8 days, begun -4 h (group 5)): did not increase the survival; weight change in sham-infected mice at day 19 ([8]; 75 mg/kg/day IP, sham infection): no significant weight change

Q: Which “injection site pain on co-administration with Compound A” value [9] does the source give for `CCN(CC)CC(=O)Nc1c(C)cccc1C` [lidocaine, reference compound] here?
A: Its value is “ameliorate injection site pain”.
